Read-outs that look alike come from different tables or passages of the source.
Columns and labels:
[1] = tested on: LbHsp90 and LbHsp90N recombinant proteins; assay: Differential scanning fluorimetry (thermal shift assay); type: binding, L. braziliensis; conditions: DSF; for Thermal shift: inclusion criterion Tm variation greater or equal to ± 2 °C in LbHsp90 or LbHsp90N, Yes/No
Description: The interaction of Hsp90 proteins with different compounds was monitored through the melting temperature (Tm) of each protein in the presence of a fixed concentration of the target compound by differential scanning fluorimetry (DSF) also referred as thermal shift assay. A final concentration of 10 µM of dimeric LbHsp90 and 20 µM of monomeric LbHsp90N in 40 mM Hepes buffer (pH 7.5) containing 100 mM KCl were used. The DMSO concentration in each sample was fixed at 2.5% (v/v). Prior to the readings, the samples were incubated for 30 min on ice. The fluorophore Sypro Orange (Life Technologies) was used as fluorescent probe. The experiments were performed at a thermocycler CFX96 Touch Real Time PCR Detection System (BioRad) and the data were analysed using the CFX Manager software (BioRad). As positive controls, 100 µM of GA and Radicicol (RDC) were used.

[2] = tested on: promastigote form of L. braziliensis; assay: Cell viability assay (MTT/PMS), single concentration; type: cell-based; conditions: L. braziliensis promastigotes, 200 μM/well; for Cell viability: 72 h, MTT/PMS, Yes = leishmanicidal activity; for reduced cell viability: after 72 h
Description: The leishmanicidal activity of the compounds was tested in vitro against the promastigote form of L. braziliensis applying 200 μM/well, (with a total of 0.5% DMSO) into 90 μL of culture. The concentration of L. braziliensis (MHOM/BR/1973/M2269) was adjusted to 10^7 cells/mL. Amphotericin (100 μM/well) was used as positive control, and 0.5% DMSO as negative control.
The plates were incubated at room temperature (RT) for 72 h. After this period, the viability of the promastigotes was verified via MTT (3–(4, 5-Dimethylthiazol-2-yl)-2, 5-Diphenyltetrazolium Bromide) colorimetric assay. MTT/PMS 11.1 μL/well solution (MTT = 5 mg/mL; Phenazine methosulfate-PMS = 0.22 mg/mL) was added, and the plate was incubated at RT for 4 h, at 150 RPM, protected from light. Formazan crystals were then solubilised by adding 100 μL/well of a solubilisation solution containing 7% SDS, 10 mM HCl and 30% DMSO. The mixture was incubated at RT for 90 min at 150 RPM protected from light. Wells containing the medium and the compounds or DMSO without MTT were used as blank controls. The absorbance was quantified in a plate reader (Biotek Synergy HT) at 570 nm.
The cell viability percentages were calculated by the following equation: (1) Cell viability %= AT−AB/AU−AB ×100 where AT was an averaged absorbance from treated samples, AB blank absorbance and AU was an averaged absorbance from negative control.

LbHsp90 [3] = target: T1, LbHsp90 (Leishmania braziliensis, UniProt A4HL70); assay: ATPase activity inhibition assay (EnzChek Pi quantification); type: biochemical
Description: (§1) The ATPase activity of LbHsp90 and hHsp90β was evaluated spectrophotometrically through inorganic phosphate (Pi) quantification following ATP hydrolysis, by the EnzChek™ assay kit (Invitrogen®) as previous described[31]^,[34]. Briefly, a 2 µM solution of LbHsp90 and hHsp90β enzymes was prepared in 150 mM NaCl, 5 mM MgCl2 and 20 mM Tris-HCl, pH 7.5, and incubated with ATP (concentration range 0–5 mM) for 60 min at 37 °C. Then, the chromogenic substrate 2-amino-6-mercapto 7-methyl purine riboside (MESG) and the purine nucleoside phosphorylase (PNP) were added and the resulting reaction mixture was incubated for 30 min at 37 °C. The assays were performed in a 96-well plate and kinetic parameters determined by Michaelis–Menten fitting using GraphPad Prism 6 software.
The inhibitory activity against LbHsp90 and hHsp90β of compounds showing interaction in DSF assays (namely Glb08, Glb15, Gl23, Glb25 and Glb27) was determined using spectrophotometric ATPase activity assays as described above. Initial screenings were performed using 50 μM compound concentration in a reaction mixture consisting of 2 μM enzyme and 2.5 mM ATP. After 1 h incubation at 37 °C, MESG and PNP were added. The amount of Pi was estimated after 30 min incubation at 37 °C. GA was used as reference compound, reporting 100% ATPase activity inhibition (at 50 μM). […] A compound concentration ranging from 1 to 75 μM was included in the reaction mixture and Pi quantification performed as previously described (measurements were performed in triplicate). IC50 values were determined by non-linear regression data fitting (using GraphPad Prism 6 software).

hHsp90β [4] = target: T2, hHsp90β (Homo sapiens, UniProt P08238); assay: as above; type: biochemical; conditions: 50 μM compound, 2 μM enzyme, 2.5 mM ATP
T2 construct: made in house; host or cells: Escherichia coli BL21(DE3)
Description: as §1
Initial screenings were performed using 50 μM compound concentration in a reaction mixture consisting of 2 μM enzyme and 2.5 mM ATP. After 1 h incubation at 37 °C, MESG and PNP were added. The amount of Pi was estimated after 30 min incubation at 37 °C. […] A compound concentration ranging from 1 to 75 μM was included in the reaction mixture and Pi quantification performed as previously described (measurements were performed in triplicate). IC50 values were determined by non-linear regression data fitting (using GraphPad Prism 6 software).

LbHsp90 [5] = target: T1, LbHsp90; set-up: method as in PMID 22910377; conditions: measured by Tryptophan fluorescence quenching ref 31; read-out: KDapp LbHsp90; cited from earlier work
LbHsp90N [6] = target: LbHsp90N; set-up: method as in PMID 22910377; conditions: measured by Tryptophan fluorescence quenching ref 31; read-out: KDapp LbHsp90N; cited from earlier work
L. amazonensis = tested on: L. amazonensis; set-up: method as in PMID 31611575; conditions: determined against L. amazonensis ref 36; read-out: IC50 (L. braziliensis column); cited from earlier work
[7] = tested on: promastigote forms of L. braziliensis; assay: In vitro IC50 determination (leishmanicidal activity, MTT/PMS); type: cell-based; conditions: promastigotes, 72 h, RT
Description: Amphotericin 100 μM/well and 0.5% DMSO were used as positive and negative control, respectively. The plates were incubated at RT for 72 h. After this, the viability of the promastigotes was verified by MTT/PMS colorimetric assay, as described above. In vitro leishmanicidal activity, expressed as IC50, was determined using GraphPad Prism 5 software according to the following equation: (2) y= Amin + Amax−Amin/1+10^logIC50 −x*Hillslope where Amin and Amax are, respectively, the minimum and maximum activities obtained, x is the ligand concentration and Hill Slope is the parameter that describes the steepness of the curve.
The selectivity index parameter was obtained by the ratio of compound IC50 against mammalian cells and compound IC50 against promastigote cells.

[8] = tested on: Balb-c 3T3 clone A31 mouse fibroblasts; assay: Cytotoxic assay (MTT); type: cell-based; conditions: Balb-c 3T3 mouse fibroblasts, 72 h, 37 °C
Description: Compounds cytotoxicity was evaluated in 100 μL of Balb-c 3T3 cone A31 mouse fibroblasts (10^5 cells/mL) into a 96-well plate, incubated for 24 h at 37 °C to become adhered. After this period, the medium was washed and 100 μL of each compound was added to the culture medium (concentration ranging from 1 to 200 μM/well, with a total of 0.5% DMSO) in quadruplicate. Rapamycin was used as a positive control, and 0.5% DMSO was used as negative control. The plates were incubated for 72 h at 37 °C. After this, the viability of Balb-c 3T3 cells was evaluated by MTT colorimetric assay, as described previously.

LbHsp90 [9] = target: T1, LbHsp90; assay: Tryptophan fluorescence quenching interaction assay; type: binding; conditions: full-length, tryptophan fluorescence quenching; read-out: KDapp LbHsp90
Description: (§2) Two µM of protein in 40 mM Hepes buffer (pH 7.5), 100 mM KCl, was incubated for 30 min on ice with increasing concentrations of the compounds diluted in DMSO. […] The samples were excited at 280 nm and the emission was collected in the 300–400 nm range, in a 1.0 × 0.2 cm optical path cuvette, on an F-4500 Fluorescence Spectrophotometer (Hitachi). The fluorescence quenching was analysed at the maximum emission wavelength in the absence of ligand. The determination of the apparent dissociation constant (KDapp) was performed by fitting the fluorescence values obtained for each compound concentration according to a dose-response model through the Equation (3): (3) y = Fmin + (Fmax−Fmin)/(1+10^(logKD− [ligand])) where Fmin and Fmax are the minimum and maximum fluorescence intensity and [ligand] is the compound concentration used in the assay, according to the GraphPad Prism 5 software. The fluorescence intensities were corrected by inner filter effects as previously described.

hHsp90β [10] = target: T2, hHsp90β; assay: as above; type: binding; conditions: full-length, tryptophan fluorescence quenching; read-out: KDapp hHsp90β
Description: as §2

hHsp90βN = target: T3, hHsp90βN (Homo sapiens, UniProt P08238); assay: as above; type: binding; conditions: N-terminal domain, read-out: KDapp hHsp90βN
T3 construct: N-terminal domain construct (Hsp90βN – residues 1–223); His-tag (cleaved yes); made in house; host or cells: Escherichia coli BL21(DE3)
Description: as §2

LbHsp90N [11] = assay: as above; type: binding, L. braziliensis; conditions: N-terminal domain, read-out: KDapp LbHsp90N
Description: as §2

[12] = compound 1 to 75 μM, triplicate, read-out: IC50 LbHsp90 ATPase activity inhibition

T3 sequence (P08238 1-223): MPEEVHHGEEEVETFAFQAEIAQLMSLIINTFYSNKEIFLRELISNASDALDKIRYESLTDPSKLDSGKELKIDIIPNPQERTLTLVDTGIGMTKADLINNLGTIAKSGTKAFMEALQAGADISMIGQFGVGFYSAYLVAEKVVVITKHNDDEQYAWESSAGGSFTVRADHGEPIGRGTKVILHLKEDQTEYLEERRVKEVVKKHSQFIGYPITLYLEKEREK
T2 sequence (P08238 whole entry): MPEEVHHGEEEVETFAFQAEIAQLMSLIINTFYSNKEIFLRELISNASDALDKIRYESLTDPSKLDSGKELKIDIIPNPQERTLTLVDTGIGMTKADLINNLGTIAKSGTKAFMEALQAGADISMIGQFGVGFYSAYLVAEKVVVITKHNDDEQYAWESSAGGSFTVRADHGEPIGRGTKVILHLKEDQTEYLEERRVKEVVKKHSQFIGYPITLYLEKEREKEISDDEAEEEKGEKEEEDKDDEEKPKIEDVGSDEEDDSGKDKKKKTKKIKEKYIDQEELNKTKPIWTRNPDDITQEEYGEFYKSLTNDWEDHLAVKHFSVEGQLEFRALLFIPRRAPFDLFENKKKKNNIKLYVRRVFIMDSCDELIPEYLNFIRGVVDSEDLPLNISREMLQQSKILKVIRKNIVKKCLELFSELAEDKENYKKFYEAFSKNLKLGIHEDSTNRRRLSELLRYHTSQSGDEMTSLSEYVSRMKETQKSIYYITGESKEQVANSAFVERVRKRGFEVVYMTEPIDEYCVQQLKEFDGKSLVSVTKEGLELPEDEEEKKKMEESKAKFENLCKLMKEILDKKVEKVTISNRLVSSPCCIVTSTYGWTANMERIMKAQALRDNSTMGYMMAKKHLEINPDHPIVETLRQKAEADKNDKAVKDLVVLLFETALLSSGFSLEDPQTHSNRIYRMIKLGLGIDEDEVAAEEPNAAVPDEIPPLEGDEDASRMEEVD
T1 sequence (A4HL70 entry or part of it): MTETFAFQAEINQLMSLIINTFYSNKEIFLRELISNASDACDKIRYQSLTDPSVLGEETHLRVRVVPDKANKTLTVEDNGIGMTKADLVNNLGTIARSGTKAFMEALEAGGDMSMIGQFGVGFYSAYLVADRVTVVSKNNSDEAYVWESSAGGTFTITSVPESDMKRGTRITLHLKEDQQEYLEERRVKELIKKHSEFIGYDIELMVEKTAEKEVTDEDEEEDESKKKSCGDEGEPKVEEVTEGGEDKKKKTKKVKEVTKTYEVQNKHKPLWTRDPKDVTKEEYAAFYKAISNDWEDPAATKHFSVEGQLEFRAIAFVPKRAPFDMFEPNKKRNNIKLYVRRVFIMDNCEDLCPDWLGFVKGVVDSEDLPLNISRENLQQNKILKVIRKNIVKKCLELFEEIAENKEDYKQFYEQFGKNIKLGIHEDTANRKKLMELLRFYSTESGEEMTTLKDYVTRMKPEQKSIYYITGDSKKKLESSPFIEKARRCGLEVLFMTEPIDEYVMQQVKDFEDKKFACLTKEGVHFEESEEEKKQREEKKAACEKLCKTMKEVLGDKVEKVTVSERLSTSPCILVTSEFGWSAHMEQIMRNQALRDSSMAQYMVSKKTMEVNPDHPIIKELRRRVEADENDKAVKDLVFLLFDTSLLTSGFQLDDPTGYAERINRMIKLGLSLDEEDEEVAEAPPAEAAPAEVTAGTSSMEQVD

COC1=C2C[C@@H](C)C[C@H](OC)[C@H](O)[C@@H](C)/C=C(\C)[C@H](OC(N)=O)[C@@H](OC)/C=C\C=C(/C)C(=O)NC(=CC1=O)C2=O [GA, geldanamycin, reference compound]
ΔTm ([1]; 100 µM positive controls, protein stabilisation): > 2.0 °C | Cell viability [2]: Yes | IC50 (LbHsp90 [3]): 9 µM | inhibition at 50 µM (LbHsp90 [3]; read-out: percentage inhibition of LbHsp90 ATPase activity): 100% | percentage inhibition of hHsp90β ATPase activity (hHsp90β [4]): fully inhibits enzyme activity | Kd (LbHsp90 [5]): 7.6 ± 0.2 µM | Kd (LbHsp90N [6]): 1.8 ± 0.3 µM | IC50 (L. amazonensis): 0.19 µM

N=C(N)Nc1nc(-c2ccccc2)c2ccccc2n1 [Glb08]
Thermal shift [1]: positive outcomes and Yes | Cell viability [2]: Yes | reduced cell viability [2]: more than 60% | IC50 [7]: 43 ± 2 µM | IC50 [8]: 75 ± 3 µM | Kd (LbHsp90 [9]): 13 ± 4 µM | Kd (hHsp90β [10]): 20 ± 5 µM | Kd (hHsp90βN): 29 ± 3 µM | Kd (LbHsp90N [11]): 17 ± 6 µM | IC50 (LbHsp90 [3]; [12]): 30 ± 1 µM | percentage inhibition of hHsp90β ATPase activity (hHsp90β [4]): lower than 60%

N=C(N)NN=Cc1cnn(Cc2ccccc2)c1 [Glb15]
Thermal shift [1]: No | Cell viability [2]: Yes | reduced cell viability [2]: more than 60% | IC50 [7]: 71 ± 2 µM | IC50 [8]: > 200 µM | Kd (LbHsp90 [9]): 14 ± 4 µM | Kd (hHsp90β [10]): 14 ± 6 µM | Kd (hHsp90βN): 12 ± 3 µM | Kd (LbHsp90N [11]): 13 ± 3 µM | IC50 (LbHsp90 [3]; [12]): 36 ± 1 µM | percentage inhibition of hHsp90β ATPase activity (hHsp90β [4]): lower than 60%

Cc1cc(CSC(=N)N)c2oc(-c3ccccc3)cc(=O)c2c1 [Glb25]
Thermal shift [1]: positive outcomes and Yes | Cell viability [2]: Yes | reduced cell viability [2]: more than 60% | IC50 [7]: > 200 µM | IC50 [8]: 11 ± 1 µM | Kd (LbHsp90 [9]): 7 ± 3 µM | Kd (hHsp90β [10]): 15 ± 9 µM | Kd (hHsp90βN): 14 ± 3 µM | Kd (LbHsp90N [11]): 12 ± 2 µM | percentage inhibition of hHsp90β ATPase activity (hHsp90β [4]): lower than 60%

From article PMC7034072, “Discovery of small molecule inhibitors of Leishmania braziliensis Hsp90 chaperone” (Journal of Enzyme Inhibition and Medicinal Chemistry, 2020)
